{"source": "patent US20100130449A1", "about": "“Use of Tri-Substituted Glycerol Compounds for the Treatment of Radiation Injuries” (ALPHAPTOSE GMBH, priority 2006, published 2010)", "type_in_all_cases": "in vivo", "key": {"[1]": {"system": "neutron irradiated mice", "test": "Survival of mice, ET18-OCH3 given 1 day before neutron irradiation", "from_the_text": "The effect of ET18-OCH3 before applying different doses of neutron radiation on the survival rates of mice are summarized in Table 5."}, "[2]": {"system": "neutron irradiated mice", "test": "Cell numbers in the peripheral blood of mice after neutron irradiation", "conditions": "for Granulocytes, median/interquartile distance / Leukocytes, median/interquartile distance / Lymphocytes, median/interquartile distance / Thrombocytes, median/interquartile distance: 300 cGy neutron", "procedure": "Mice were irradiated using a van de Graaf generator with of 3-8 MeV neutrons. […] A single dose of 50 mg/kg ET18-OCH3 was administered to half of the mice by subcutaneous injection.\nAs the therapy experiments were carried out with an irradiation dose range, in which the hematological syndrome of the radiation injury predominates, the evaluation of the therapeutic effect of the drug on the blood forming (hematopoetic) system is important."}, "[3]": {"system": "neutron irradiated mice", "test": "Survival of mice after neutron radiation, ET18-OCH3 given after irradiation", "conditions": "400-420 cGy neutron radiation, 50 mg/kg subcutaneous", "procedure": "Mice were irradiated using a van de Graaf generator with of 3-8 MeV neutrons. The radiation doses used in the following analyses were 400, 410, and 420 cGy for each third of the treated and the control mice, respectively. A single dose of 50 mg/kg ET18-OCH3 was administered to half of the mice by subcutaneous injection."}, "[4]": {"system": "X-ray irradiated mice", "test": "Survival of X-ray irradiated mice, ET18-OCH3 given after irradiation", "conditions": "for Death/Survival treated: 2 × 25 mg/kg intravenous 6 hours and 12 hours after irradiation", "procedure": "The efficacy of 1-O-octadecyl-2-O-methyl-glycero-3-phosphocholine (in the following referred to as “ET18-OCH3”) as a radioprotectant in the treatment of an acute radiation injury that is caused by (mid)lethal radiation doses was analyzed by determining its influence on the survival rate of mice and on the hematological syndrome of the radiation injury in response to different types of radiation.\nA single dose of 25 mg/kg ET18-OCH3 was administered at a time intravenously to 25 mice 12 hours after exposure to an X-ray dose of 650 cGy (centiGray). Only one of the 25 treated mice died, as compared to 6 of the 25 mice in the control group.\nAfter an intravenous administration of 25 mg/kg ET18-OCH3 6 hours and 12 hours after X-ray irradiation, respectively, the following results were obtained (Table 1). The chi-square distribution is given for all positive values. The chi-square test was used for comparing the results of the treated versus the control animals.\nAfter an oral administration of 25 mg/kg ET18-OCH3 6 hours and 24 hours after exposure to a X-ray dose of 700 cGy X-ray irradiation, respectively, 2 of 25 treated animals died, as compared to 7 of 25 of the control animals."}, "[5]": {"system": "neutron irradiated mice", "test": "White blood cell count (hemogram) after ET18-OCH3 and neutron irradiation", "procedure": "FIG. 2 depicts the radioprotective effect of ET18-OCH3 (referred to as “ALP”) on the lymphocyte numbers of mice. Mice were treated with a single dose 70 mg/kg ET18-OCH3 (administered subcutaneously) 24 hours before exposure to neutron radiation (radiation dose 2.0 Gy). […]\nFIG. 3 depicts the radioprotective effect of ET18-OCH3 (referred to as “ALP”) on the granulocyte numbers of mice. The experiment was performed in an analogous manner as described in FIG. 2.\nThe radioprotective effect of ET18-OCH3 on lymphocyte and granulocyte numbers in mice is shown in FIG. 2 and FIG. 3, respectively."}, "[6]": {"system": "gamma-radiated mice", "test": "Survival of mice after gamma irradiation, single dose of ET18-OCH3 before or after irradiation"}, "[7]": {"system": "gamma-radiated mice", "test": "Survival of mice after gamma irradiation, single dose of ET18-OCH3 before or after irradiation", "procedure": "FIG. 1 depicts the radioprotective effect of ET18-OCH3 on the survival rate of mice. ET18-OCH3 was administered as a single dose of 50 mg/kg body weight to each of 40 mice (20 control mice, 20 test mice). 24 hours later, the 20 test mice were exposed to a gamma radiation dose of 7.9 Gy (Gray) and 8.7 Gy, respectively. The survival rates were monitored for 30 days.", "remark": "listed apart in the source"}, "[8]": {"conditions": "neutron 425 cGy, 50 mg/kg subcutaneously 1 day before irradiation"}, "[9]": {"conditions": "neutron 425 cGy, 70 mg/kg subcutaneously 1 day before irradiation"}, "[10]": {"conditions": "neutron 450 cGy, 50 mg/kg subcutaneously 1 day before irradiation"}, "[11]": {"conditions": "neutron 450 cGy, 70 mg/kg subcutaneously 1 day before irradiation"}, "[12]": {"conditions": "day 7, 50 mg/kg s.c. 30 min after irradiation"}, "[13]": {"conditions": "day 7, 50 mg/kg s.c. 2 h after irradiation"}, "[14]": {"conditions": "day 14, 50 mg/kg s.c. 30 min after irradiation"}, "[15]": {"conditions": "day 14, 50 mg/kg s.c. 2 h after irradiation"}, "[16]": {"conditions": "gamma 750 cGy, 30 mg/kg, a.r. (after radiation)"}, "[17]": {"conditions": "gamma 750 cGy, 50 mg/kg, 1 d before irradiation"}, "[18]": {"conditions": "gamma 775 cGy, 40 mg/kg, a.r. (after radiation)"}, "[19]": {"conditions": "gamma 775 cGy, 50 mg/kg, 2 h before irradiation"}, "[20]": {"conditions": "gamma 775 cGy, 50 mg/kg, 1 d before irradiation"}, "[21]": {"conditions": "gamma 800 cGy, 40 mg/kg, a.r. (after radiation)"}, "[22]": {"conditions": "gamma 800 cGy, 50 mg/kg, 2 h before irradiation"}, "[23]": {"conditions": "gamma 830 cGy, 50 mg/kg, 1 d before irradiation"}, "[24]": {"conditions": "gamma 870 cGy, 50 mg/kg, 1 d before irradiation"}, "[25]": {"conditions": "gamma 790 cGy, 50 mg/kg, 1 d before irradiation"}}, "data": [{"compound": "CCCCCCCCCCCCCCCCCCOCC(COP(=O)([O-])OCC[N+](C)(C)C)OC", "note": "(stereo not drawn) [ET18-OCH3, 1-O-octadecyl-2-O-methyl-glycero-3-phosphocholine]", "values": [{"measurement": "Death", "setting": "[1]; [8]", "value": "11 (73%)"}, {"measurement": "Survival", "setting": "[1]; [8]", "value": "4 (27%)"}, {"measurement": "Death", "setting": "[1]; [9]", "value": "10 (67%)"}, {"measurement": "Survival", "setting": "[1]; [9]", "value": "5 (33%)"}, {"measurement": "Death", "setting": "[1]; [10]", "value": "8 (26%)"}, {"measurement": "Survival", "setting": "[1]; [10]", "value": "22 (73%)"}, {"measurement": "Death", "setting": "[1]; [11]", "value": "12 (80%)"}, {"measurement": "Survival", "setting": "[1]; [11]", "value": "3 (20%)"}, {"measurement": "Death", "setting": "[1]; neutron 475 cGy, 50 mg/kg subcutaneously 1 day before irradiation", "value": "19 (76%)"}, {"measurement": "Granulocytes, median/interquartile distance", "setting": "[2]; [12]", "value": "209/202"}, {"measurement": "Leukocytes, median/interquartile distance", "setting": "[2]; [12]", "value": "975/450"}, {"measurement": "Lymphocytes, median/interquartile distance", "setting": "[2]; [12]", "value": "684/255"}, {"measurement": "Thrombocytes, median/interquartile distance", "setting": "[2]; [12]", "value": "698/427"}, {"measurement": "Granulocytes, median/interquartile distance", "setting": "[2]; [13]", "value": "240/304"}, {"measurement": "Leukocytes, median/interquartile distance", "setting": "[2]; [13]", "value": "675/413"}, {"measurement": "Lymphocytes, median/interquartile distance", "setting": "[2]; [13]", "value": "446/132"}, {"measurement": "Thrombocytes, median/interquartile distance", "setting": "[2]; [13]", "value": "900/315"}, {"measurement": "concentration of leukocytes and granulocytes in the peripheral blood", "setting": "[2]; day 10-15 after irradiation, when the irradiated mice died", "value": "significantly increases"}, {"measurement": "Granulocytes, median/interquartile distance", "setting": "[2]; [14]", "value": "3063/3121"}, {"measurement": "Leukocytes, median/interquartile distance", "setting": "[2]; [14]", "value": "8675/11827"}, {"measurement": "Lymphocytes, median/interquartile distance", "setting": "[2]; [14]", "value": "7439/6942"}, {"measurement": "Thrombocytes, median/interquartile distance", "setting": "[2]; [14]", "value": "533/263"}, {"measurement": "Granulocytes, median/interquartile distance", "setting": "[2]; [15]", "value": "4189/2282"}, {"measurement": "Leukocytes, median/interquartile distance", "setting": "[2]; [15]", "value": "9975/5863"}, {"measurement": "Lymphocytes, median/interquartile distance", "setting": "[2]; [15]", "value": "5101/3765"}, {"measurement": "Thrombocytes, median/interquartile distance", "setting": "[2]; [15]", "value": "987/464"}, {"measurement": "Survival/Death", "setting": "[3]; 30 min", "value": "18 (75%)/6 (25%)"}, {"measurement": "Survival/Death", "setting": "[3]; 2 h", "value": "13 (54%)/11 (46%)"}, {"measurement": "Survival/Death", "setting": "[3]; 6 h", "value": "12 (52%)/11 (48%)"}, {"measurement": "Death/Survival treated", "setting": "[4]; X-ray dose 650 cGy", "value": "2/28"}, {"measurement": "Death/Survival treated", "setting": "[4]; X-ray dose 700 cGy", "value": "3/25"}, {"measurement": "Death/Survival treated", "setting": "[4]; X-ray dose 750 cGy", "value": "14/16"}, {"measurement": "Death/Survival treated", "setting": "[4]; X-ray dose 800 cGy", "value": "22/8"}, {"measurement": "treated animals died", "setting": "[4]; oral 25 mg/kg 6 hours and 24 hours after X-ray dose of 700 cGy, control 7 of 25 died", "value": "2 of 25"}, {"measurement": "treated mice died", "setting": "[4]; single dose 25 mg/kg intravenously 12 hours after X-ray dose of 650 cGy, control 6 of 25 died", "value": "one of the 25"}, {"measurement": "LD50/30 X-ray dose", "setting": "[4]; treated animals, 25 mg/kg intravenous 6 and 12 hours after irradiation, untreated controls 688.1±38.6", "value": "749±37.1", "unit": "cGy"}, {"measurement": "X-ray mediated lethality", "setting": "[4]; treated mice compared to control mice", "value": "delayed"}, {"measurement": "reduction of leukocyte numbers (both of lymphocytes and granulocytes) compared to untreated controls", "setting": "[5]; 50 mg/kg and 70 mg/kg, neutron irradiation, not statistically significant, 5 experiments, n=90", "value": "slightly increased"}, {"measurement": "difference between the administration of 50 mg/kg and 70 mg/kg", "setting": "[5]; leukocyte numbers after neutron irradiation", "value": "No statistically significant difference"}, {"measurement": "leukocyte numbers (both lymphocytes and granulocytes)", "setting": "[5]; starting at day 3 after irradiation, significant at day 7 (4 experiments; n=30, p<0.003)", "value": "increase in leukocyte numbers"}, {"measurement": "number of lymphocyte relative to the normal value", "setting": "[5]; treated animals at mid-lethal irradiation doses, average", "value": "about one tenth"}, {"measurement": "Death", "setting": "[6]; [16]", "value": "1 (6%)"}, {"measurement": "Survival", "setting": "[6]; [16]", "value": "17 (94%)"}, {"measurement": "Death", "setting": "[6]; [17]", "value": 0}, {"measurement": "Survival", "setting": "[6]; [17]", "value": "20 (100%)"}, {"measurement": "Death", "setting": "[6]; [18]", "value": "12 (60%)"}, {"measurement": "Survival", "setting": "[6]; [18]", "value": "8 (40%)"}, {"measurement": "Death", "setting": "[6]; [19]", "value": "5 (25%)"}, {"measurement": "Survival", "setting": "[6]; [19]", "value": "15 (75%)"}, {"measurement": "Death", "setting": "[6]; [20]", "value": "2 (10%)"}, {"measurement": "Survival", "setting": "[6]; [20]", "value": "18 (90%)"}, {"measurement": "Death", "setting": "[6]; [21]", "value": "10 (29%)"}, {"measurement": "Survival", "setting": "[6]; [21]", "value": "25 (71%)"}, {"measurement": "Death", "setting": "[6]; [22]", "value": "3 (15%)"}, {"measurement": "Survival", "setting": "[6]; [22]", "value": "17 (85%)"}, {"measurement": "Death", "setting": "[6]; [23]", "value": "3 (15%)"}, {"measurement": "Survival", "setting": "[6]; [23]", "value": "17 (85%)"}, {"measurement": "Survival", "setting": "[6]; [24]", "value": "13 (65%)"}, {"measurement": "LD50/30 gamma radiation dose", "setting": "[6]; treated irradiated mice, ET18-OCH3 one day before irradiation, probit analysis, untreated irradiated controls 7.47 Gy", "value": 8.98, "unit": "Gy"}, {"measurement": "Death", "setting": "[7]; [25]", "value": "2 (10%)"}, {"measurement": "Survival", "setting": "[7]; [25]", "value": "18 (90%)"}, {"measurement": "Death", "setting": "[7]; [24]", "value": "7 (35%)"}, {"measurement": "radioprotective effect on survival", "setting": "[7]; similar when given either 24 hours or shortly before gamma irradiation", "value": "significant radioprotective effect"}]}]}
